Experiments:
[1] = tested on: HCV genotype 1b (Con1) replicon in HUH-7 cells; assay: HCV replicon luciferase reporter assay, genotype 1b; assay type: cell-based; conditions: Hepatitis C virus, 72 h, HCV genotype 1b replicon luciferase, 3 days incubation, class symbols, read-out: LE_1b (EC50, range)
From the text: An HCV replicon whole cell system was established as described by Lohmann V, Korner F, Koch J, Herian U, Theilmann L, Bartenschlager R., Science 285(5424):110-3 (1999) and modified to introduce a luciferase reporter, as first described by Krieger et al (Krieger N, Lohmann V, and Bartenschlager R, J. Virol. 75(10):4614-4624 (2001)). CDNA encoding a humanized form of the Renilla luciferase gene and a linker sequence fused directly to the 3′-end of the luciferase gene were introduced into the replicon construct using an Asc1 restriction site located in core, directly upstream of the neomycin marker gene. The adaptive mutation at position 1179 (serine to isoleucine) was also introduced (Blight K J, Kolykhalov, A A, Rice, C M, Science 290(5498):1972-1974). A stable cell line constitutively expressing this HCV replicon construct was generated by first linearizing plasmid DNAs with ScaI. RNA transcripts were synthesized in vitro using the T7 MegaScript transcription kit (Ambion, Austin, Tex.) according to manufacturer's directions. In vitro transcripts of the cDNA were transfected into the human hepatoma cell line, HUH-7. […] Resulting cell lines were characterized for positive and negative strand RNA production and protein production over time. […]
(§1) HCV replicon luciferase assays were developed to monitor the inhibitory effects of compounds described in the disclosure on HCV genotypes 1a and 1b viral replication. HUH-7 cells, constitutively expressing the HCV replicon, were grown in Dulbecco's Modified Eagle Media (DMEM) (Gibco-BRL) containing 10% Fetal calf serum (FCS) (Sigma) and 1 mg/mL G418 (Gibco-BRL). Compounds were serially diluted 3 folds in DMSO for a twenty-point titration and subsequently transferred to sterile 384-well tissue-culture treated plates (Corning cat #3571). The plates were then seeded with 50 μL of cells at a density of 3.0×10^3 cells/well in DMEM containing 4% FCS (final DMSO concentration at 0.5%). After 3 days incubation at 37° C., cells were analyzed for Renilla Luciferase activity using the EnduRen as substrate (Promega cat #E6485). The EnduRen substrate was diluted in DMEM and then added to the plates to a final concentration of 7.5 μM. The plates were incubated for 2 hrs at 37° C. and then read immediately for 30 seconds with Viewlux Imager (PerkinElmer) using a luminescence program. To assess cytotoxicity of compounds, CC50 values were generated by multiplexing the EnduRen-containing plates with Cell Titer-Blue (Promega, cat # G8082). Cell-Titer Blue (3 μL) was added to each well and incubated for 8 hrs at 37° C. The fluorescence signal from each well was read, with an excitation wavelength at 525/10 nm and an emission wavelength of 598/10 nm, using the Viewlux Imager.
(§2) The EC50 values for compounds were calculated by using a four-parameter logistic equation: y=A+((B−A)/(1+((C/x)^D))), where A and B denotes minimal and maximal % inhibition, respectively, C is the EC50, D is the hill slope and x represents compound concentration.

[2] = tested on: HCV genotype 1a (H77 strain) replicon in HUH-7 cells; assay: HCV replicon luciferase reporter assay, genotype 1a; assay type: cell-based; conditions: Hepatitis C virus, Huh-7, 72 h, HCV genotype 1a replicon luciferase, 3 days incubation, class symbols, read-out: LE_1a (EC50, range)
From the text: An HCV replicon whole cell system was established as described by Lohmann V, Korner F, Koch J, Herian U, Theilmann L, Bartenschlager R., Science 285(5424):110-3 (1999) and modified to introduce a luciferase reporter, as first described by Krieger et al (Krieger N, Lohmann V, and Bartenschlager R, J. Virol. 75(10):4614-4624 (2001)). CDNA encoding a humanized form of the Renilla luciferase gene and a linker sequence fused directly to the 3′-end of the luciferase gene were introduced into the replicon construct using an Asc1 restriction site located in core, directly upstream of the neomycin marker gene. The adaptive mutation at position 1179 (serine to isoleucine) was also introduced (Blight K J, Kolykhalov, A A, Rice, C M, Science 290(5498):1972-1974). A stable cell line constitutively expressing this HCV replicon construct was generated by first linearizing plasmid DNAs with ScaI. RNA transcripts were synthesized in vitro using the T7 MegaScript transcription kit (Ambion, Austin, Tex.) according to manufacturer's directions. In vitro transcripts of the cDNA were transfected into the human hepatoma cell line, HUH-7. […] Resulting cell lines were characterized for positive and negative strand RNA production and protein production over time.
A stable HCV replicon luciferase reporter cell line representing the genotype 1a H77 strain (Yanagi M, Purcell R H, Emerson S U, et al. Transcripts from a single full-length cDNA clone of hepatitis C virus are infectious when directly transfected into the liver of a chimpanzee. Proc Natl Acad Sci USA 1997; 94(16):8738-8743) was generated as described previously for the genotype 1b (Con1) replicon luciferase cell line. The replicon construct was modified by introducing mutations were introduced into the genes encoding the NS3 helicase domain (proline replaced by leucine at position 1496) and NS5A (serine to isoleucine at position 2204) to improve replication in cell culture.
as §1, §2

SMILES	EC50 [1] [nM]	EC50 [2] [nM]
CC[C@@H]1C[C@H](C)CC/C=C\[C@@H]2C[C@@]2(C(=O)NS(=O)(=O)C2CC2)NC(=O)[C@@H]2C[C@@H](Oc3ncc(OC)c4ccc(F)cc34)CN2C(=O)[C@H]1NC(=O)OC(C)(C)C [Compound 4001, tert-butyl tert-butyl (2R,6S,7R,9R,13aS,14aR,16aS,Z)-14a-(cyclopropylsulfonylcarbamoyl)-7-ethyl-2-(7-fluoro-4-methoxyisoquinolin-1-yloxy)-9-methyl-5,16-dioxo-1,2,3,5,6,7,8,9,10,11,13a,14,14a,15,16,16a-hexadecahydrocyclopropa[e]pyrrolo[1,2-a][1,4]diazacyclopentadecin-6-ylcarbamate]	< 5.46	< 5.46
CC[C@@H]1C[C@H](C)CC/C=C\[C@@H]2C[C@@]2(C(=O)NS(=O)(=O)C2CC2)NC(=O)[C@@H]2C[C@@H](Oc3ncc(OC)c4ccccc34)CN2C(=O)[C@H]1NC(=O)OC(C)(C)C [Compound 4007, tert-butyl (2R,6S,7R,9R,13aS,14aR,16aS,Z)-14a-(cyclopropylsulfonylcarbamoyl)-7-ethyl-2-(4-methoxyisoquinolin-1-yloxy)-9-methyl-5,16-dioxo-1,2,3,5,6,7,8,9,10,11,13a,14,14a,15,16,16a-hexadecahydrocyclopropa[e]pyrrolo[1,2-a][1,4]diazacyclopentadecin-6-ylcarbamate]	< 5.46	< 5.46
CC[C@@H]1C[C@H](C)CC/C=C\[C@@H]2C[C@@]2(C(=O)NS(=O)(=O)C2CC2)NC(=O)[C@@H]2C[C@@H](Oc3ncc(OC)c4ccccc34)CN2C(=O)[C@H]1NC(=O)OC(C)(C)C(F)(F)F [Compound 4008, 1,1,1-trifluoro-2-methylpropan-2-yl (2R,6S,7R,9R,13aS,14aR,16aS,Z)-14a-(cyclopropylsulfonylcarbamoyl)-7-ethyl-2-(4-methoxyisoquinolin-1-yloxy)-9-methyl-5,16-dioxo-1,2,3,5,6,7,8,9,10,11,13a,14,14a,15,16,16a-hexadecahydrocyclopropa[e]pyrrolo[1,2-a][1,4]diazacyclopentadecin-6-ylcarbamate]	< 5.46	< 5.46
COc1ccc2c(O[C@@H]3CC4C(=O)N[C@]5(C(=O)NS(=O)(=O)C6(F)CC6)C[C@H]5/C=C\CC[C@@H](C)C[C@@H](C)[C@H](NC(=O)C(C)(C)C)C(=O)N4C3)nccc2c1 (some centres unmarked) [Compound 4015]	< 5.46	< 5.46
C[C@@H]1CC/C=C\[C@@H]2C[C@@]2(C(=O)NS(=O)(=O)C2CC2)NC(=O)[C@@H]2C[C@@H](Oc3ncc(OCC4CC4)c4ccccc34)CN2C(=O)[C@@H](NC(=O)OC(C)(C)C(F)(F)F)[C@H](C)C1 [Compound 4030, 1,1,1-trifluoro-2-methylpropan-2-yl (2R,6S,7R,9R,13aS,14aR,16aS,Z)-2-(4-(cyclopropylmethoxy)isoquinolin-1-yloxy)-14a-(cyclopropylsulfonylcarbamoyl)-7,9-dimethyl-5,16-dioxo-1,2,3,5,6,7,8,9,10,11,13a,14,14a,15,16,16a-hexadecahydrocyclopropa[e]pyrrolo[1,2-a][1,4]diazacyclopentadecin-6-ylcarbamate]	< 5.46	< 5.46
C[C@@H]1CC/C=C\[C@@H]2C[C@@]2(C(=O)NS(=O)(=O)C2CC2)NC(=O)[C@@H]2C[C@@H](Oc3ncc(OC(F)F)c4c(Cl)cccc34)CN2C(=O)[C@@H](NC(=O)OC(C)(C)C(F)(F)F)[C@H](C)C1 [Compound 4031, 1,1,1-trifluoro-2-methylpropan-2-yl (2R,6S,7R,9R,13aS,14aR,16aS,Z)-2-(5-chloro-4-(difluoromethoxy)isoquinolin-1-yloxy)-14a-(cyclopropylsulfonylcarbamoyl)-7,9-dimethyl-5,16-dioxo-1,2,3,5,6,7,8,9,10,11,13a,14,14a,15,16,16a-hexadecahydrocyclopropa[e]pyrrolo[1,2-a][1,4]diazacyclopentadecin-6-ylcarbamate]	< 5.46	< 5.46
COc1cnc(O[C@@H]2C[C@H]3C(=O)N[C@]4(C(=O)NS(=O)(=O)C5(C)CC5)C[C@H]4/C=C\CC[C@H](C)C[C@@H](C)[C@H](NC(=O)OC(C)(C)C)C(=O)N3C2)c2ccccc12 [Compound 4058, tert-butyl (2R,6S,7R,9S,13aS,14aR,16aS,Z)-2-(4-methoxyisoquinolin-1-yloxy)-7,9-dimethyl-14a-(1-methylcyclopropylsulfonylcarbamoyl)-5,16-dioxo-1,2,3,5,6,7,8,9,10,11,13a,14,14a,15,16,16a-hexadecahydrocyclopropa[e]pyrrolo[1,2-a][1,4]diazacyclopentadecin-6-ylcarbamate]	< 5.46	< 5.46
C[C@@H]1CC/C=C\[C@@H]2C[C@@]2(C(=O)NS(=O)(=O)C2CC2)NC(=O)[C@@H]2C[C@@H](Oc3nccc4ccc(F)cc34)CN2C(=O)[C@@H](NC(=O)OC(C)(C)C(F)(F)F)[C@H](C)C1 [Compound 4072, 1,1,1-trifluoro-2-methylpropan-2-yl (2R,6S,7R,9R,13aS,14aR,16aS,Z)-14a-(cyclopropylsulfonylcarbamoyl)-2-(7-fluoroisoquinolin-1-yloxy)-7,9-dimethyl-5,16-dioxo-1,2,3,5,6,7,8,9,10,11,13a,14,14a,15,16,16a-hexadecahydrocyclopropa[e]pyrrolo[1,2-a][1,4]diazacyclopentadecin-6-ylcarbamate]	< 5.46	< 5.46
COc1ccc2c(O[C@@H]3C[C@H]4C(=O)N[C@]5(C(=O)NS(=O)(=O)C6(C)CC6)C[C@H]5/C=C\CC[C@@H](C)C[C@@H](C)[C@H](NC(=O)OC(C)(C)C)C(=O)N4C3)ncc(N3CCN(S(C)(=O)=O)CC3)c2c1 [Compound 4121, tert-butyl (2R,6S,7R,9R,13aS,14aR,16aS,Z)-2-(6-methoxy-4-(4-(methylsulfonyl)piperazin-1-yl)isoquinolin-1-yloxy)-7,9-dimethyl-14a-(1-methylcyclopropylsulfonylcarbamoyl)-5,16-dioxo-1,2,3,5,6,7,8,9,10,11,13a,14,14a,15,16,16a-hexadecahydrocyclopropa[e]pyrrolo[1,2-a][1,4]diazacyclopentadecin-6-ylcarbamate]	< 5.46	< 5.46
CC[C@@H]1C[C@H](C)CC/C=C\[C@@H]2C[C@@]2(C(=O)NS(=O)(=O)C2(C)CC2)NC(=O)[C@@H]2C[C@@H](Oc3ncc(OC)c4ccccc34)CN2C(=O)[C@H]1NC(=O)OC(C)(C)C(F)(F)F [Compound 4174, 1,1,1-trifluoro-2-methylpropan-2-yl (2R,6S,7R,9R,13aS,14aR,16aS,Z)-7-ethyl-2-(4-methoxyisoquinolin-1-yloxy)-9-methyl-14a-(1-methylcyclopropylsulfonylcarbamoyl)-5,16-dioxo-1,2,3,5,6,7,8,9,10,11,13a,14,14a,15,16,16a-hexadecahydrocyclopropa[e]pyrrolo[1,2-a][1,4]diazacyclopentadecin-6-ylcarbamate]	< 5.46	< 5.46

From US9527885B2, “Hepatitis C virus inhibitors” (BRISTOL-MYERS SQUIBB COMPANY, priority 2011, dated 2016)
